Results from patent US6770627B1, “Piperizine-4-phenyl derivatives as inhibitors of the interaction between mdm2 and p 53” (AstraZeneca AB, priority 1998, dated 2004).

Biological target: T1, p53/MDM2 interaction [MDM2 (1-118) 6 his and GST-p53(1-50)] (Homo sapiens, UniProt Q00987)
T1 construct: The human MDM2 N-terminal fragment encompassing amino acids 1-118; made in house; host or cells: E. coli BL21/DE3 (MDM2-6His); E. coli DH5alpha (GST-p53)
Assay: Measurement of the inhibition of p53/MDM2 interaction (modified ELISA)
Format: binding
Conditions: 75 nM GST-p53 coated, 75 nM MDM2-6His, NTA-AP detection, optical density at 405 nm, compounds tested between 0 and 100 μM
Protocol: The inhibition of the p53/MDM2 interaction by compounds was measured using a modified ELISA assay using a histidine tagged MDM2 [MDM2 (1-118) 6 his], a p53 GST fusion protein (GST-p53) and a nickel chelate-alkaline phosphatase (NTA-AP).
The human MDM2 N-terminal fragment encompassing amino acids 1-118 and immediately followed by a C-terminal 6-histidine tag sequence and then a stop codon was generated by PCR from a human placental cDNA library. The PCR product was initially cloned into pCR2.1 vector (Invitrogen) following the manufacturer's protocol. DNA sequencing confirmed a MDM fragment sequence identical to that of published MDM2 (EMBL accession no. Z12020). The MDM2-6His fragment was then subcloned into pTB375 E. coli expression vector to produce the expression vector pTB375-MDM2-6His (1-118) clone no. 11. The pTB375 vector is a modified T7 (Studier) Expression vector. Expression grows were performed in E. coli strain BL21/DE3 (obtained from Novagen Inc.) and expression of the recombinant protein was induced by addition of IPTG (isopropyl-β-D-1-thiogalactopyranoside). MDM2 (1-118) 6 his was purified from E. coli lysates using Ni-NTA beads (Qiagen). […]
100 μl of 75 nM GST-p53 was added per well to a 96 well plate (Nunc Maxisorp) and the plate left at 4° C. overnight. […] The optical density of each well was measured at 405 nm. […]

T1 sequence (Q00987 1-118): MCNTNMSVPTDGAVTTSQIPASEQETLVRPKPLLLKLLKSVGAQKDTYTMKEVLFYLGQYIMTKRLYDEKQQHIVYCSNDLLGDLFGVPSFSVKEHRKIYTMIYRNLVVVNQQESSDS

IC50: ~4 µM
Structure (SMILES): Cc1occc1C(=O)N[C@@H](Cc1c[nH]c2ccccc12)C(=O)N1CCN(c2ccc([N+](=O)[O-])cc2)CC1 [Example 9, 2-Methyl-3-furoyl-Trp-piperazine-4-nitrophenyl]
